Data taken from patent publication US12325697B2 (Nimbus Clio, Inc., priority 2021, dated 2025).
pIC50: −log10 of the molar value.

How the values were obtained:
[1] = molecular target: Recombinant human c-Cbl (aa 47-435) (Homo sapiens (Human), UniProt P22681); test: c-Cbl Biochemical Assay (TR-FRET)
Summary of the method: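 Biotinylated c-Cbl (6 nM) preincubated 30 min RT with compound, then reacted 60-90 min with Src-Zap70 (2.5-10 nM) and 0.5 mM ATP, pH 7.0 HEPES buffer. Stopped with EDTA; 100 nM Bodipy-ubiquitinated UBE2D2 binding read by TR-FRET after 60 min; IC50 from 4-parameter fit.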

[2] = molecular target: Recombinant human Cbl-b (aa 36-427) (Homo sapiens (Human), UniProt Q13191); test: Cbl-b Biochemical Assay (TR-FRET); conditions: read-out: TR-FRET hCbl-b IC50
Summary of the method: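 Two-step TR-FRET: 6 nM biotinylated Cbl-b preincubated 30-60 min with compound, then 60 min at RT with 1-2.5 nM Src-Zap70 and 0.5 mM ATP in HEPES pH 7.0 buffer, 1% DMSO. Stopped with 5 mM EDTA plus 100 nM UBE2D2-Ub-FL-BODIPY and 1 nM streptavidin-Tb, 60 min; 520 nm signal; IC50 from 4-parameter fit.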

Recombinant human Cbl-b (aa 36-427), sequence (Q13191 36-427): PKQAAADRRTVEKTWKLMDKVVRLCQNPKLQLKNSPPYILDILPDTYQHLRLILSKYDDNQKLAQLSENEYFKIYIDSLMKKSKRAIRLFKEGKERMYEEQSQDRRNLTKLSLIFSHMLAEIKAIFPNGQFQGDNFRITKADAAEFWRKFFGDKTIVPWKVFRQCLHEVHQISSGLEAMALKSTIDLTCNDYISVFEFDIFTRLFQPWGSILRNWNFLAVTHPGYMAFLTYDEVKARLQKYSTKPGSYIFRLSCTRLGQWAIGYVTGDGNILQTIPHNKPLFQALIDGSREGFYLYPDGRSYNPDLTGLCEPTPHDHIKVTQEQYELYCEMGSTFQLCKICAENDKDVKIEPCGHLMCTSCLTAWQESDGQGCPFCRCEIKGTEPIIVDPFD
Recombinant human c-Cbl (aa 47-435), sequence (P22681 47-435): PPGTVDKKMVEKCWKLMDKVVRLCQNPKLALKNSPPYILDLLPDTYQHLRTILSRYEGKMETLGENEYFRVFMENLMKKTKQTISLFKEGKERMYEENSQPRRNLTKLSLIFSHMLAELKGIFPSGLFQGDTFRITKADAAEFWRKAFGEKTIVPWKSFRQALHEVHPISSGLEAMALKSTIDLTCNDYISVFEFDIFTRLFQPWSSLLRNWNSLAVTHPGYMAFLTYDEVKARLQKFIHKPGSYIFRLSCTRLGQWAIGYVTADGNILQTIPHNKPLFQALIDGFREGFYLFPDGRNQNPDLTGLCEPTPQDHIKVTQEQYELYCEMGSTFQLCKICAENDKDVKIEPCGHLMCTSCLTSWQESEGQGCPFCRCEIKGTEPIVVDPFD

Q: How did the pIC50 [1] turn out when CN(Cc1ccc2c(c1)C(=O)N(c1cc(-c3ccc(C#N)cc3-c3nncn3C)cc(C3CC3)n1)C2)CC1CCCC1 [AJY-1, 4-[2-(6-{1[(Cyclopentylmethyl)(methyl)amino]methyl}-1-oxo-3H-isoindol-2-yl)-6-cyclopropylpyridin-4-yl]-3-(4-methyl-1,2,4-triazol-3-yl)benzonitrile] was run?
A: ≥ 6.70

Q: And the pIC50 [2]?
A: ≥ 6.70

Q: With Cn1cnnc1-c1cc(C#N)ccc1-c1cc(C2CC2)nc(N2Cc3c(F)cc(CNCC4CCC4)cc3C2=O)c1 [AKS-1, 4-[2-(6-{1[(Cyclobutylmethyl)amino]methyl}-4-fluoro-1-oxo-3H-isoindol-2-yl)-6-cyclopropylpyridin-4-yl]-3-(4-methyl-1,2,4-triazol-3-yl)benzonitrile] as the compound, how does the pIC50 [1] read?
A: ≥ 6.70

Q: And the pIC50 [2]?
A: ≥ 6.70

Q: How did the pIC50 [1] turn out when COC(F)(F)CNCc1cc(F)c2c(c1)C(=O)N(c1cc(-c3ccc(C#N)cc3-c3nncn3C)cc(C3CC3)n1)C2 [ALV-4, 4-[2-Cyclopropyl-6-(6-{[(2,2-difluoro-2-methoxyethyl)amino]methyl}-4-fluoro-1-oxo-3H-isoindol-2-yl)pyridin-4-yl]-3-(4-methyl-1,2,4-triazol-3-yl)benzonitrile] was run?
A: ≥ 6.70

Q: And the pIC50 [2]?
A: ≥ 6.70

Q: How did the pIC50 [1] turn out when Cn1cnnc1-c1cc(C#N)ccc1-c1cc(C2CC2)nc(N2Cc3ccc(CNCC4(CO)CCC4)cc3C2=O)c1 [AMA-2, 4-(2-Cyclopropyl-6-{6-[({[1-(hydroxymethyl)cyclobutyl]methyl}amino)methyl]-1-oxo-3H-isoindol-2-yl}pyridin-4-yl)-3-(4-methyl-1,2,4-triazol-3-yl)benzonitrile] was run?
A: ≥ 6.70

Q: And the pIC50 [2]?
A: ≥ 6.70

Q: Cn1cnnc1-c1cc(C#N)ccc1-c1cc(C2CC2)nc(N2Cc3c(F)cc(CNCC4(F)CC4)cc3C2=O)c1 [AKZ-2, 4-{2-Cyclopropyl-6-[4-fluoro-6-({[(1-fluorocyclopropyl)methyl]amino}methyl)-1-oxo-3H-isoindol-2-yl]pyridin-4-yl}-3-(4-methyl-1,2,4-triazol-3-yl)benzonitrile] was tested. Which pIC50 [1] did it give?
A: ≥ 6.70

Q: And the pIC50 [2]?
A: ≥ 6.70

Q: Cn1cnnc1-c1cc(C#N)ccc1-c1cc(C2CC2)nc(N2Cc3cnc(CNCC4CCC4)cc3C2=O)c1 [ALF-2, 4-[2-(6-{[(Cyclobutylmethyl)amino]methyl}-1-oxo-3H-pyrrolo[3,4-c]pyridin-2-yl)-6-cyclopropylpyridin-4-yl]-3-(4-methyl-1,2,4-triazol-3-yl)benzonitrile] was tested. Which pIC50 [1] did it give?
A: ≥ 6.70

Q: What about the pIC50 [2] of the same compound?
A: ≥ 6.70

Q: COCCNCc1cc(F)c2c(c1)C(=O)N(c1cc(-c3ccc(C#N)cc3-c3nncn3C)cc(C3CC3)n1)C2 [AIO-9, 4-[2-Cyclopropyl-6-(4-fluoro-6-{[(2-methoxyethyl)amino]methyl}-1-oxo-3H-isoindol-2-yl)pyridin-4-yl]-3-(4-methyl-1,2,4-triazol-3-yl)benzonitrile] was tested. Which pIC50 [1] did it give?
A: ≥ 6.70

Q: What about the pIC50 [2] of the same compound?
A: ≥ 6.70

Q: With CNCc1ccc2c(c1)C(=O)N(c1cc(-c3ccc(C#N)cc3-c3nncn3C)cc(C3CC3)n1)C2 [AIT-1, 4-(2-cyclopropyl-6-{6-[(methylamino)methyl]-1-oxo-3H-isoindol-2-yl}pyridin-4-yl)-3-(4-methyl-1,2,4-triazol-3-yl)benzonitrile] as the compound, how does the pIC50 [1] read?
A: ≥ 6.70

Q: What about the pIC50 [2] of the same compound?
A: ≥ 6.70

Q: With Cn1cnnc1-c1cc(F)cc(F)c1-c1cc(C2CC2)nc(N2Cc3ccc(CNCC4(O)CCC4)cc3C2=O)c1 [AII-9, 2-{6-Cyclopropyl-4-[2,4-difluoro-6-(4-methyl-1,2,4-triazol-3-yl)phenyl]pyridin-2-yl}-6-({[(1-hydroxycyclobutyl)methyl]amino}methyl)-3H-isoindol-1-one] as the compound, how does the pIC50 [1] read?
A: ≥ 6.70

Q: And the pIC50 [2]?
A: ≥ 6.70

Q: Cn1cnnc1-c1cc(C#N)ccc1-c1cc(C2CC2)nc(N2Cc3c(F)cc(CN[C@@H]4COC[C@@H]4O)cc3C2=O)c1 [ALI-2, 4-{2-Cyclopropyl-6-[4-fluoro-6-({[(3R,4R)-4-hydroxyoxolan-3-yl]amino}methyl)-1-oxo-3H-isoindol-2-yl]pyridin-4-yl}-3-(4-methyl-1,2,4-triazol-3-yl)benzonitrile] was tested. Which pIC50 [1] did it give?
A: ≥ 6.70

Q: What about the pIC50 [2] of the same compound?
A: ≥ 6.70

Q: CN(C)C(=O)CN(Cc1ccc2c(c1)C(=O)N(c1cc(-c3ccc(C#N)cc3-c3nncn3C)cc(C3CC3)n1)C2)CC1COC1 [AON-2, 2-{[(2-{4-[4-Cyano-2-(4-methyl-1,2,4-triazol-3-yl)phenyl]-6-cyclopropylpyridin-2-yl}-3-oxo-1H-isoindol-5-yl)methyl](oxetan-3-ylmethyl)amino}-N,N-dimethylacetamide] was tested. Which pIC50 [1] did it give?
A: ≥ 6.70

Q: What about the pIC50 [2] of the same compound?
A: ≥ 6.70

Q: Which results are given for CC(NCC1CC1)c1ccc2c(c1)C(=O)N(c1cc(-c3ccc(C#N)cc3-c3nncn3C)cc(C3CC3)n1)C2 (centres unmarked) [AJI-1, 4-(2-Cyclopropyl-6-(6-(1-((cyclopropylmethyl)amino)ethyl)-1-oxoisoindolin-2-yl)pyridin-4-yl)-3-(4-methyl-4H-1,2,4-triazol-3-yl)benzonitrile]?
A: pIC50 [1]: ≥ 6.70; pIC50 [2]: ≥ 6.70

Q: Which results are given for Cn1cnnc1-c1cc(C#N)ccc1-c1cc(C2CC2)nc(N2Cc3ccc(CNCC4(O)CCCC4)cc3C2=O)c1 [AIF-1, 4-{2-Cyclopropyl-6-[6-({[(1-hydroxycyclopentyl)methyl]amino}methyl)-1-oxo-3H-isoindol-2-yl]pyridin-4-yl}-3-(4-methyl-1,2,4-triazol-3-yl)benzonitrile]?
A: pIC50 [1]: ≥ 6.70; pIC50 [2]: ≥ 6.70

Q: What does the source list for Cn1cnnc1-c1cc(C#N)ccc1-c1cccc(N2Cc3ccc(CNCC4CC4)cc3C2=O)c1 [AJE-2, 3′-(6-(((Cyclopropylmethyl)amino)methyl)-1-oxoisoindolin-2-yl)-2-(4-methyl-4H-1,2,4-triazol-3-yl)-[1,1′-biphenyl]-4-carbonitrile]?
A: pIC50 [1]: ≥ 6.70; pIC50 [2]: ≥ 6.70

Q: COC[C@@H](C)NCc1ccc2c(c1)C(=O)N(c1cc(-c3ccc(C#N)cc3-c3nncn3C)cc(C3CC3)n1)C2 [AIK-2, 4-{2-Cyclopropyl-6-[6-({[(2R)-1-methoxypropan-2-yl]amino}methyl)-1-oxo-3H-isoindol-2-yl]pyridin-4-yl}-3-(4-methyl-1,2,4-triazol-3-yl)] was tested. Which pIC50 [1] did it give?
A: ≥ 6.70

Q: What about the pIC50 [2] of the same compound?
A: ≥ 6.70

Q: Which results are given for CCOc1cc(-c2ccc(Cl)cc2-c2nncn2C)cc(N2Cc3ccc(CNCC4(O)CCC4)cc3C2=O)n1 [AHT-2, 2-(4-(4-Chloro-2-(4-methyl-4H-1,2,4-triazol-3-yl)phenyl)-6-ethoxypyridin-2-yl)-6-((((1-hydroxycyclobutyl)methyl)amino)methyl)isoindolin-1-one]?
A: pIC50 [1]: ≥ 6.70; pIC50 [2]: ≥ 6.70

Q: With Cn1cnnc1-c1cc(C#N)ccc1-c1cc(C2CC2)nc(N2Cc3c(F)cc(CN4C[C@@]5(C)C[C@@H]4CO5)cc3C2=O)c1 [ANV-1, 4-(2-Cyclopropyl-6-(4-fluoro-6-(((1R,4R)-1-methyl-2-oxa-5-azabicyclo[2.2.1]heptan-5-yl)methyl)-1-oxoisoindolin-2-yl)pyridin-4-yl)-3-(4-methyl-4H-1,2,4-triazol-3-yl)benzonitrile] as the compound, how does the pIC50 [1] read?
A: ≥ 6.70

Q: What about the pIC50 [2] of the same compound?
A: ≥ 6.70

Q: COCCNCc1ccc2c(c1)C(=O)N(c1cccc(-c3ccc(C#N)cc3-c3nncn3C)c1)C2 [AJF-1, 3′-(6-(((2-Methoxyethyl)amino)methyl)-1-oxoisoindolin-2-yl)-2-(4-methyl-4H-1,2,4-triazol-3-yl)-[1,1′-biphenyl]-4-carbonitrile] was tested. Which pIC50 [1] did it give?
A: ≥ 6.70

Q: What about the pIC50 [2] of the same compound?
A: ≥ 6.70

Q: Cn1cnnc1-c1cc(C#N)ccc1-c1cc(C2CC2)nc(N2Cc3c(F)cc(CNCC4CC4)cc3C2=O)c1 [AMC-2, 4-[2-Cyclopropyl-6-(6-{[(cyclopropylmethyl)amino]methyl}-4-fluoro-1-oxo-3H-isoindol-2-yl)pyridin-4-yl]-3-(4-methyl-1,2,4-triazol-3-yl)benzonitrile] was tested. Which pIC50 [1] did it give?
A: ≥ 6.70

Q: What about the pIC50 [2] of the same compound?
A: ≥ 6.70
